From patent US20080161340A1, “Tetrahydroquinilinones, tetrahydronaphthyridones and derivatives thereof” (priority 2006, published 2008)

Tests used:
Assay type in all cases: cell-based
rCB2 = biological target: T1, rCB2 (Rattus norvegicus, UniProt Q9QZN9); assay: cAMP assay, rCB2 in Table 7, agonist/inverse agonist; details: intracellular cAMP; + agonist, − inverse agonist
T1 sequence (Q9QZN9 1-360): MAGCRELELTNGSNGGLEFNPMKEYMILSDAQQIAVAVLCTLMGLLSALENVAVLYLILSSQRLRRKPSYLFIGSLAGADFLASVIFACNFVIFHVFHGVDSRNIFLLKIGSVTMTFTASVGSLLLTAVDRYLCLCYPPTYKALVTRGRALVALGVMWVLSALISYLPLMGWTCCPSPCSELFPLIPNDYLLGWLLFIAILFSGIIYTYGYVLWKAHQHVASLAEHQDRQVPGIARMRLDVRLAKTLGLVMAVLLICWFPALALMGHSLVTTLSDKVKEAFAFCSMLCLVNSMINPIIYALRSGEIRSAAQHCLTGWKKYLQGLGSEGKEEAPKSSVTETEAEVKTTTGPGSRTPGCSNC
Experimental: (§1) Receptor mediated responses were determined by measuring changes in intracellular cAMP using LANCE cAMP detection kit (cat #AD0264, PerkinElmer, Wellesley, Mass.) based on time-resolved fluorescence resonance energy transfer (TR-FRET). Changes in cAMP were determined in cells pre-incubated with IBMX (isobutyl methylxanthine) and prestimulated with NKH-477 (a water soluble forskolin derivative, cat #1603, Tocris, Ellisville, Mo.) to increase basal cAMP levels as detailed below.
(§2) On the day of the experiment, cells were spun at low speed for 5 min at room temperature. The supernatant was removed and cells were resuspended in stimulation buffer (Hanks Buffered Salt Solution/5 mM HEPES, containing 0.5 mM IBMX (cat #17018, Sigma) and 0.02% BSA (PerkinElmer, cat #CR84-100)). Cell clumps were removed by filtering through cell strainer 40 μm (BD Falcon, Discovery Labware, Bedford, Mass.) and diluted to 2×10^5 cells/mL. Antibody supplied with the LANCE cAMP immunoassay kit was then added according to the manufacturer's instructions. An aliquot of cells was taken for un-induced controls. To the remaining cells was added NKH-477 (a water soluble forskolin derivative, Tocris cat #1603) to a final concentration of 2-8 μM. Cells were then incubated for 30 min at room temperature prior to adding to Proxiplates containing test compounds (final DMSO concentration was less than 0.5%) with a Multidrop bulk dispenser, followed by a sixty minute incubation at room temperature. The response was stopped by addition of the detection mix supplied with the LANCE kit.
(§3) The reagents were allowed to equilibrate for three hours prior to reading on an Envision multi-mode detector (PerkinElmer). TR-FRET was measured using a 330-380 nm excitation filter, a 665 nm emission filter, dichroic mirror 380 nm and Z=1 mm.
(§4) Cyclic AMP concentrations in each well were back-calculated from a cAMP standard curve run concurrently during each assay. Each plate contained 16 wells of forskolin stimulated cells and 16 wells of forskolin plus CP55,940-treated. CP55,940-treated cells were treated with CP55,940 (Tocris cat. # 0949) at 1 μm and the maximal response was used as the full range (100%) standard. WIN55,212 (Tocris cat. # 1038) was used as an internal standard. Concentrations of cAMP were expressed as a percent of the difference of these two groups of wells. Concentration-response data including ECso (the concentration of compound producing 50% of the maximal response) and intrinsic activity (the percent maximal activation compared to full activation by CP55,940) were determined using a four-parameter non-linear regression algorithm (Xlfit equation 251, IDBS).

hCB2 = biological target: T2, hCB2 (Homo sapiens, UniProt P34972); assay: cAMP assay (LANCE TR-FRET) in CHO-K1 cells stably expressing hCB2, agonist/inverse agonist; details: intracellular cAMP, CHO-K1 hCB2 cells prestimulated with NKH-477; + agonist, − inverse agonist
T2 construct: host or cells: CHO-K1
Experimental: (§5) The ability of compounds to act as agonists or inverse agonists at human CB2 and CB1 receptors (hCB2, hCB1, respectively) was determined by measuring changes in intracellular cAMP levels. Chinese Hamster Ovary (CHO-K1) cell lines stably expressing hCB2 (Genebank: X74328) or hCB1 (Genebank: X54937) were purchased from Euroscreen (Gosselies, Belgium).
(§6) Cell lines were grown in suspension in EX-CELL 302 CHO Serum-free medium (Sigma, cat #14324C) supplemented with 1% Fetal Bovine Serum, glutamine and non-essential amino-acids under 0.4 mg/mL G418 selection.
as §1, §2, §3, §4

hCB1 = biological target: T3, hCB1 (Homo sapiens, UniProt P21554); assay: cAMP assay (LANCE TR-FRET) in CHO-K1 cells stably expressing hCB1, agonist/inverse agonist; details: intracellular cAMP, CHO-K1 hCB1 cells prestimulated with NKH-477, + agonist, − inverse agonist; for EC50: read-out: hCB1 EC50 class
T3 construct: host or cells: CHO-K1
Experimental: as §5, §6, §1, §2, §3, §4

T3 sequence (P21554 whole entry): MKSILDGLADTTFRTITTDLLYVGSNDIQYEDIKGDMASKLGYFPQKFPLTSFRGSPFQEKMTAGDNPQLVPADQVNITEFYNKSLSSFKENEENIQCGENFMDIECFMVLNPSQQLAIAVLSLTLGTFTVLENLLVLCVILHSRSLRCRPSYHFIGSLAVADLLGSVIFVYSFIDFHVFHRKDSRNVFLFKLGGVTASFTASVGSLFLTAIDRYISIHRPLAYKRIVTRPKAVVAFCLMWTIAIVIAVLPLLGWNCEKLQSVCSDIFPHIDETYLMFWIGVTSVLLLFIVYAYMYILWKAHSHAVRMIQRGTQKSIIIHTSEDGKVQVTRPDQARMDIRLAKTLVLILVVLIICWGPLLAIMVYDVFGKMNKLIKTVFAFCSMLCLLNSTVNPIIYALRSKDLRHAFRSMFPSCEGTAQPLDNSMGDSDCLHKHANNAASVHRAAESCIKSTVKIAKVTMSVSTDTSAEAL
T2 sequence (P34972 whole entry): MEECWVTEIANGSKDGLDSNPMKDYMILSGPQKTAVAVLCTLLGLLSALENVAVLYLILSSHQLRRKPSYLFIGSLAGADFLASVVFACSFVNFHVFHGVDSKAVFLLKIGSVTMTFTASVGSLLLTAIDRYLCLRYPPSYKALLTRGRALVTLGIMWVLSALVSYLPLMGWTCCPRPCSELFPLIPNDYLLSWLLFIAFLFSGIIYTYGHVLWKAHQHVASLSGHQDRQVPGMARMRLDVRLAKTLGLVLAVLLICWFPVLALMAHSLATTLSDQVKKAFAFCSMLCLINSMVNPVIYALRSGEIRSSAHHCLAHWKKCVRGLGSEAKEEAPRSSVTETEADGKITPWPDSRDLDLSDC

## O=c1c(-c2ccccc2)cc2c(n1CC1CCC1)CCCC2 [Compound 1, 1-(cyclobutylmethyl)-3-phenyl-5,6,7,8-tetrahydroquinolin-2(1H)-one]
rCB2
  rCB2 EC50 class: +A
hCB2
  hCB2 EC50 class: +B
hCB1
  EC50: > 10 µM

## O=c1c(-c2ccccc2)cc2c(n1CC1CC1)CCCC2 [Compound 2, 1-(cyclopropylmethyl)-3-phenyl-5,6,7,8-tetrahydroquinolin-2(1H)-one]
rCB2
  rCB2 EC50 class: +C
hCB2
  hCB2 EC50 class: +B
hCB1
  EC50: > 10 µM

## O=c1c(-c2cccc(F)c2)cc2c(n1CC1CC1)CCCC2 [Compound 4, 1-(cyclopropylmethyl)-3-(3-fluorophenyl)-5,6,7,8-tetrahydroquinolin-2(1H)-one]
rCB2
  rCB2 EC50 class: +C
hCB1
  hCB1 EC50 class: +C

## O=c1c(-c2cc3c(n(CC4CCC4)c2=O)CCCC3)cc2c(n1CC1CCC1)CCCC2 [Compound 5, 1,1′-bis(cyclobutylmethyl)-5,5′,6,6′,7,7′,8,8′-octahydro-3,3′-biquinoline-2,2′(1H,1′H)-dione]
rCB2
  rCB2 EC50 class: +A
hCB2
  hCB2 EC50 class: +A
hCB1
  hCB1 EC50 class: +C

## O=c1c(-c2cccc(C(F)(F)F)c2)cc2c(n1CC1CCC1)CCCC2 [Compound 6, 1-(cyclobutylmethyl)-3-(3-(trifluoromethyl)phenyl)-5,6,7,8-tetrahydroquinolin-2(1H)-one]
rCB2
  rCB2 EC50 class: +A
hCB2
  hCB2 EC50 class: +A
hCB1
  EC50: > 10 µM

## O=c1c(-c2ccc(C(F)(F)F)cc2)cc2c(n1CC1CCC1)CCCC2 [Compound 7, 1-(cyclobutylmethyl)-3-(4-(trifluoromethyl)phenyl)-5,6,7,8-tetrahydroquinolin-2(1H)-one]
rCB2
  rCB2 EC50 class: +A
hCB2
  hCB2 EC50 class: +A
hCB1
  EC50: > 10 µM

## O=c1c(-c2cccc(Cl)c2)cc2c(n1CC1CCC1)CCCC2 [Compound 8, 3-(3-chlorophenyl)-1-(cyclobutylmethyl)-5,6,7,8-tetrahydroquinolin-2(1H)-one]
rCB2
  rCB2 EC50 class: +A
hCB2
  hCB2 EC50 class: +A
hCB1
  EC50: > 10 µM

## O=c1c(-c2cccs2)cc2c(n1CC1CCC1)CCCC2 [Compound 9, 1-(cyclobutylmethyl)-3-(thiophen-2-yl)-5,6,7,8-tetrahydroquinolin-2(1H)-one]
rCB2
  rCB2 EC50 class: +C
hCB2
  hCB2 EC50 class: +B
hCB1
  EC50: > 10 µM

## O=c1c(-c2cccnc2)cc2c(n1CC1CCC1)CCCC2 [Compound 10, 1-(cyclobutylmethyl)-3-(pyridin-3-yl)-5,6,7,8-tetrahydroquinolin-2(1H)-one]
rCB2
  rCB2 EC50 class: +B
hCB2
  hCB2 EC50 class: +B
hCB1
  EC50: > 10 µM

## COc1ccncc1-c1cc2c(n(CC3CCC3)c1=O)CCCC2 [Compound 13, 1-(cyclobutylmethyl)-3-(4-methoxypyridin-3-yl)-5,6,7,8-tetrahydroquinolin-2(1H)-one]
hCB2
  hCB2 EC50 class: +B

## O=c1c(C2=NN(c3ccccc3)C(c3ccco3)C2)cc2c(n1CC1CCC1)CCCC2 (stereo not drawn) [Compound 21, 1-(cyclobutylmethyl)-3-(5-(furan-2-yl)-1-phenyl-4,5-dihydro-1H-pyrazol-3-yl)-5,6,7,8-tetrahydroquinolin-2(1H)-one]
hCB2
  hCB2 EC50 class: +C

## O=c1c(-c2cccc(C(F)(F)F)c2)cc2c(n1CC1CCCCC1)CCCC2 [Compound 24, 1-(cyclohexylmethyl)-3-(3-(trifluoromethyl)phenyl)-5,6,7,8-tetrahydroquinolin-2(1H)-one]
hCB2
  hCB2 EC50 class: +A
hCB1
  hCB1 EC50 class: +B

## Cc1noc(C)c1-c1cc2c(n(CC3CCC3)c1=O)CCCC2 [Compound 27, 1-(cyclobutylmethyl)-3-(3,5-dimethylisoxazol-4-yl)-5,6,7,8-tetrahydroquinolin-2(1H)-one]
hCB2
  hCB2 EC50 class: +B

## O=c1c(-c2cn[nH]c2)cc2c(n1CC1CCC1)CCCC2 [Compound 28, 1-(cyclobutylmethyl)-3-(1H-pyrazol-4-yl)-5,6,7,8-tetrahydroquinolin-2(1H)-one]
rCB2
  rCB2 EC50 class: −C
hCB1
  EC50: > 10 µM

## CC(C)(C)OC(=O)N1CCc2c(cc(-c3cccc(Cl)c3)c(=O)n2CC2CCC2)C1 [Compound 35, tert-butyl 3-(3-chlorophenyl)-1-(cyclobutylmethyl)-2-oxo-1,2,7,8-tetrahydro-1,6-naphthyridine-6(5H)-carboxylate]
rCB2
  rCB2 EC50 class: −B
hCB1
  EC50: > 10 µM

## CC(C)(C)OC(=O)N1CCc2c(cc(-c3ccc(C(F)(F)F)cc3)c(=O)n2CC2CCC2)C1 [Compound 36, tert-butyl 3-(4-(trifluoromethyl)phenyl)-1-(cyclobutylmethyl)-2-oxo-1,2,7,8-tetrahydro-1,6-naphthyridine-6(5H)-carboxylate]
rCB2
  rCB2 EC50 class: −C

## CC(C)(C)OC(=O)N1CCc2c(cc(-c3cccnc3)c(=O)n2CC2CCC2)C1 [Compound 37, tert-butyl 1-(cyclobutylmethyl)-2-oxo-3-(pyridin-3-yl)-1,2,7,8-tetrahydro-1,6-naphthyridine-6(5H)-carboxylate]
rCB2
  rCB2 EC50 class: −C

## O=C(c1ccno1)N1CCc2c(cc(-c3ccc(C(F)(F)F)cc3)c(=O)n2CC2CCC2)C1 [Compound 45, 1-(cyclobutylmethyl)-6-(isoxazole-5-carbonyl)-3-(4-(trifluoromethyl)phenyl)-5,6,7,8-tetrahydro-1,6-naphthyridin-2(1H)-one]
rCB2
  rCB2 EC50 class: −C
hCB1
  EC50: > 10 µM

## CC(C)C(=O)N1CCc2c(cc(-c3cccc(Cl)c3)c(=O)n2CC2CC2)C1 [Compound 51, 3-(3-chlorophenyl)-1-(cyclopropylmethyl)-6-isobutyryl-5,6,7,8-tetrahydro-1,6-naphthyridin-2(1H)-one]
hCB2
  hCB2 EC50 class: +B

## COc1cccc(-c2cc3c(n(CC4CCC4)c2=O)CCN(C(C)=O)C3)c1 [Compound 55, 6-acetyl-1-(cyclobutylmethyl)-3-(3-methoxyphenyl)-5,6,7,8-tetrahydro-1,6-naphthyridin-2(1H)-one]
rCB2
  rCB2 EC50 class: −C
hCB1
  hCB1 EC50 class: −B

## O=c1c(-c2ccc(C(F)(F)F)cc2)cc2c(n1CC1CCC1)CCN(S(=O)(=O)c1ccccc1)C2 [Compound 56, 1-(cyclobutylmethyl)-6-(phenylsulfonyl)-3-(4-(trifluoromethyl)phenyl)-5,6,7,8-tetrahydro-1,6-naphthyridin-2(1H)-one]
rCB2
  rCB2 EC50 class: −C
hCB1
  hCB1 EC50 class: −B

## O=c1c(-c2ccc(C(F)(F)F)cc2)cc2c(n1CC1CCC1)CCN(S(=O)(=O)c1cccc(F)c1)C2 [Compound 57, 1-(cyclobutylmethyl)-6-(3-fluorophenylsulfonyl)-3-(4-(trifluoromethyl)phenyl)-5,6,7,8-tetrahydro-1,6-naphthyridin-2(1H)-one]
rCB2
  rCB2 EC50 class: −B
